Measured values from US20250043290A1, “RNA SEQUENCES THAT INDUCE FLUORESCENCE OF SMALL MOLECULE FLUOROPHORES, MOLECULAR COMPLEXES, SENSORS, AND METHODS OF USE THEREOF” (CORNELL UNIVERSITY, priority 2021, published 2025).
“Also recorded” adds a separate entry of the source.

Tests used:
HEK293T cells = test: SAM sensor imaging in HEK293T cells; assay type: cell-based; conditions: 30 mM cycloleucine, within 30 minutes
Method: FIG. 4A is a schematic showing the design of the Squash-SAM sensor transducer library. The SAM-III aptamer (top) was fused to Squash (bottom) through a transducer helix (middle). The sensor was selected from a library of randomized transducer sequences generated using the sprouts/clips method. FIG. 4B is a bar graph showing the results of an experiment in which, after three rounds of SELEX, two Squash-SAM sensors, 5-1 and 4-2, were tested for SAM-induced fluorescence. Squash-SAM sensor RNAs (1 μM) were incubated with 10 μM DFHO and 0 or 0.1 mM SAM for 1 hour at 37° C. and then fluorescence was measured (ex. 495 nm; em. 562 nm). Data represent mean values±s.d. for n=3 independent experiments. FIGS. 4C-4D are plots showing the kinetics of fluorescence activation (FIG. 4C) and deactivation (FIG. 4D) of Squash-SAM sensors. Sensor activation was induced by adding 0.1 mM SAM to 1 μM sensor RNAs and 10 μM DFHO at 37° C. Deactivation was measured after removal of SAM by gel filtration. […] SAM binding activates the orange fluorescence by promoting Squash folding and subsequent binding with DFHO. The constitutive green fluorescence of Broccoli-BI is used for normalization, thus eliminating the confounding effect of cell-to-cell variation in sensor expression level, and different fluorescence measurements in thick vs. thin parts of the cell. […] The ratio was measured at 10 minute time intervals. […]

mES cells = test: Ratiometric SAM imaging in mES cells; assay type: cell-based, Mouse; conditions: 30 mM cycloleucine, +2i and −2i media, sensor 4-2
HCT116 cells = test: Ratiometric SAM imaging in HCT116 cells; assay type: cell-based; conditions: 30 mM cycloleucine, sensor 5-1
Method: The control constitutively fluorescent Squash was not affected by withdrawal of threonine and methionine. Scale bar, 20 μm. […] Overall, low cell-to-cell variation was seen (n=8 cells from three separate experiments). […] The rate of SAM drop was slower than the rate in cells cultured in +2i (n=8 cells from three separate experiments). […] SAM levels were measured at 20 minute time intervals after methionine withdrawal and after methionine (100 μM) addition. Cells indicated with a white arrow start with a very high level of SAM and show a slow drop in SAM levels over time, indicating low SAM utilization. Scale bar, 20 μm. […]
5-1 was used because it has higher dynamic range. […] To test if this also holds in HCT116 cells, Squash-SAM sensor 5-1 was expressed in HCT116 cells and SAM level was monitored after threonine depletion. […] To test this, Squash-SAM sensor 5-1 was expressed in HCT116 cells and SAM levels were monitored for 240 minutes after depleting both threonine and methionine. […] The average cellular ratio of O/G fluorescence was quantified for these cells at 15 minute intervals after cycloleucine (30 mM final) treatment. […]
After placing the plates on a Tokai Hit stage top incubator (37° C. and 5% CO2), live fluorescence images were taken with a Nikon Eclipse Ti-E microscope fitted with a CoolSnap HQ2 CCD camera (Photometrics) through a 40× air objective (NA 0.75). […]

[1] = Photophysical properties of fluorophores and RNA-fluorophore complexes (Squash study); assay type: physicochemical; conditions: 10 μM RNA, 1 μM DFHO
Method: All RNAs used for in vitro studies (except the initial hits from SELEX and the DE2-6 mutants) were purified using 8% denaturing PAGE (7M urea) and eluted in 0.3 M NaOAc (pH 5.2) overnight. The RNA was ethanol precipitated and quantified using absorbance in a NanoDrop 2000 spectrometer. All in vitro RNA properties were measured in 40 mM HEPES-KOH (pH 7.4), 100 mM KCl, 0.5 mM MgCl2 buffer unless specified.
Absorption, excitation, and emission spectra were measured using conditions where the RNA is in excess and the fluorophore is limiting to ensure that no free fluorophore contributes to the absorbance or fluorescence signal (FIGS. 7A-7D).
All quantum yields were determined by comparing each RNA-fluorophore complex with Broccli-DFHBI-1T or Corn-DFHO. All measurements for quantum yield were taken in the presence of excess RNA (10 μM final) compared to the fluorophores (0.2 μM final) to avoid interference from unbound fluorophore. The integral of the emission spectra for each Squash-fluorophore complex was compared with the corresponding integrals for Broccoli or Corn to calculate the quantum yield.

[2] = On and off rates of aptamer binding to DFHO; conditions: 50 nM RNA
Method: FIGS. 7A-7H provide photophysical and biophysical characterization of Squash. […] Excess RNA was used to ensure binding of nearly all fluorophore. […] Data represent mean values±s.d. for n=3 independent experiments. […] The fluorescence signal trace was fitted with a monoexponential curve to extract kobs. kobs was plotted as a function of total RNA (50 nM RNA) and fluorophore concentration. kon and koff were extracted as the slope and intercept, respectively. Squash koff (0.014±0.008 s^−1) is very similar to that of Corn (0.018±0.002 s^−1). kon for Squash-DFHO (162300±8100 M^−1 s^−1) is seven-times higher than Corn-DFHO (23000±3000 M^−1 s^−1) which could be due to the high folding of Squash. […]
To measure on and off rates of Squash binding to DFHO, the same protocol that was reported previously to measure kinetic rates for Spinach-DFHBI was used (Han et al., “Understanding the Photophysics of the Spinach-DFHBI RNA Aptamer-Fluorogen Complex to Improve Live-Cell RNA Imaging,” J. Am. Chem. Soc. 135:19033-19038 (2013), which is hereby incorporated by reference in its entirety). Briefly, 50 nM RNA was mixed with different amounts of DFHO and binding kinetics was monitored on the fluorimeter as fluorescence signal increases. Each fluorescence signal trace was fitted with a monoexponential curve and the observed rate constant (kobs) was extracted. […]

[3] = Fluorescence activation of DFAME by aptamers in vitro; assay type: biochemical; conditions: 20 μM RNA, 2 μM dye
Method: To test whether Beetroot can activate DFHO, the fluorescence emission spectrum of the Beetroot-DFHO complex was measured. In brief, 20 μM Beetroot and 2 μM DFHO were mixed, and the fluorescence emission of the Beetroot-DFHO complex was measured. […] To test whether Beetroot can activate DFHBI-1T, the fluorescence emission spectrum of the Beetroot-DFHBI-1T complex was measured using the same protocol described in FIG. 32A. […] To test whether Beetroot can activate BI, the fluorescence emission spectrum of the Beetroot-BI complex was measured using the same protocol described in FIG. 32A. […] To test whether Corn can activate DFAME, the fluorescence emission spectrum of the Corn-DFAME complex was measured using the same protocol described in FIG. 32A.
The eluted RNAs were then ethanol precipitated, reverse transcribed, PCR amplified and in vitro transcribed to yield the pool for the next SELEX round. The presence of fluorescent RNA species in each pool was assessed by mixing 20 μM RNA and 10 μM DFAME and measuring fluorescence emission of this solution on a fluorometer in comparison with the fluorophore alone. At this point, RNAs were cloned into bacterial expression plasmids for FACS-based screening.
dsDNA encoding the top-performing RNA sequences from the brightest bacterial colonies was PCR amplified from the purified plasmids. […] The resulting RNA was then purified using Zymo RNA concentrator columns and quantified by absorbance using a Thermo Scientific NanoDrop 2000 spectrophotometer. For absorption, excitation and emission spectra measurements, “excess RNA” conditions and limiting amount of fluorophore was used to ensure that no free fluorophore contributes to the absorbance or fluorescence signal. The RNA concentration used for fluorescence and absorbance measurements was 20 μM and 50 μM, respectively, while the dye concentration was 2 μM and 5 μM, respectively. All in vitro RNA properties were measured in 40 mM HEPES pH 7.4, 100 mM KCl, 5 mM MgCl2 buffer, unless specified.

Compound | Sensor signal (SAM level) after cycloleucine (HEK293T cells) | SAM levels after cycloleucine (mES cells) | SAM levels after cycloleucine (HCT116 cells) | Emission maxima with DFHO [1] | koff [2] | Binding and activation of DFAME fluorescence [3]
NC1(C(=O)O)CCCC1 [cycloleucine] | rapid decrease in fluorescence; also recorded: markedly reduced | rapid drop of cellular SAM levels; also recorded: markedly depleted | marked drop in SAM | – | – | –
Corn: previously reported RNA aptamer that homodimerizes and activates DFHO, SEQ ID NO:103 (CGAGGAAGGAGGUCUGAGGAGGUCACUG; RNA, backbone not given here) [reference compound] | – | – | – | 545 nm | 0.018 ± 0.002 s⁻¹ | weakly binds and activates; also recorded: only weakly bind and activate
